Measurements reported in patent publication US20150164968A1, “Method of Producing Banana-Derived Composition and Biologically Active Substance Containing Same” (priority 2013, published 2015).

Assay: Action of antioxidation, OXY Adsorbent Test (FREE)
Conditions: solution at 10 mg/ml in ultrapure water
Procedure: The banana-derived composition 4 (the secondary refined product) as the biologically active substance and vitamin C were dissolved in ultrapure water to prepare solutions each at a concentration of 10 mg/ml. An antioxidation ability was measured twice for each of the prepared solutions. In detail, the antioxidation ability against oxidation through hypochlorous acid (HClO) was measured by means of Free Radical Elective Evaluator (FREE) manufactured by […] Co., Ltd. Oxygen (OXY) Adsorbent Test was applied to the measurement. As a result of the measurement, a concentration of HClO neutralized is obtained in the unit of μmol HClO/mL. A higher concentration value means a better HClO neutralization ability, that is to say, a stronger antioxidative action.

Compound: O=C1O[C@H]([C@@H](O)CO)C(O)=C1O [Vitamin C, vitamin C]
- concentration of HClO neutralized, 1st measurement: 71.7 μmol HClO/mL
- concentration of HClO neutralized, 2nd measurement: 79.7 μmol HClO/mL
- concentration of HClO neutralized, Average (average of two measurements): 75.7 μmol HClO/mL
